Assays:
[1] = system: GM1 production in Jurkat cells; test: cells; assay type: cell-based; conditions: Homo sapiens, Jurkat, 72 h
[2] = target: T1, glucosylceramide synthase (GCS) (Homo sapiens, UniProt Q16739); test: GCS enzyme inhibition assay (A549 cell lysate, NBD C6-ceramide, HPLC fluorescence); assay type: biochemical; conditions: inhibitory activity against GCS, 37° C., 90 minutes
T1 construct: The obtained supernatant was used; host or cells: A549 cells (lysate supernatant after sonication)
T1 sequence (Q16739 1-394): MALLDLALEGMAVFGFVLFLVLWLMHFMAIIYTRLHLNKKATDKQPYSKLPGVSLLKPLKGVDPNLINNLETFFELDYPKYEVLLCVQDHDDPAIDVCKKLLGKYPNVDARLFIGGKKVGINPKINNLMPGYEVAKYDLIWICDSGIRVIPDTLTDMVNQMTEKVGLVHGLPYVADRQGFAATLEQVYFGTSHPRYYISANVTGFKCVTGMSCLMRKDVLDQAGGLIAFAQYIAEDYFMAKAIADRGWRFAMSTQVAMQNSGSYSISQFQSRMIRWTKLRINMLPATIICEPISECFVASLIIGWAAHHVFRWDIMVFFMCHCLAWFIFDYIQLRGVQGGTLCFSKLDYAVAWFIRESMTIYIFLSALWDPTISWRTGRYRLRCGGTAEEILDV
Method in brief: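 A549 cell lysate (50 mM HEPES pH 7.3) served as GCS source; reactions ran 90 min at 37° C, were stopped with chloroform/methanol and lipids extracted. Activity taken as GlcCer/(Cer+GlcCer) peak area, normalised between DMSO and ibiglustat controls.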

Structure (SMILES) | IC50 [1] | IC50 [2]
CC(C)(C)c1cccc(-c2ccc3c(c2)SCCC3NC(=O)O[C@@H]2CN3CCC2CC3)c1 (stereo partly drawn) [Example 322, (S)-quinuclidin-3-yl (7-(3-(tert-butyl)phenyl)thiochroman-4-yl)carbamate] | 5.88 nM | 1.78 nM
COc1cc2c(cc1-c1ccc(OC(C)C)nc1)OCC(C)(C)C2NC(=O)O[C@@H]1CN2CCC1CC2 (stereo partly drawn) [Example 367, (S)-quinuclidin-3-yl (7-(6-isopropoxypyridin-3-yl)-6-methoxy-3,3-dimethylchroman-4-yl)carbamate] | 3.2 nM | 0.22 nM
COc1ccc(-c2ccc3c(c2)OCC(C)(C)C3NC(=O)O[C@@H]2CN3CCC2CC3)c(C)c1 (stereo partly drawn) [Example 116, (S)-quinuclidin-3-yl (7-(4-methoxy-2-methylphenyl)-3,3-dimethylchroman-4-yl)carbamate] | 1.16 nM | 1.39 nM
O=C(NC1CCOc2cc(-c3ccc(N4CCOCC4)c(F)c3)ccc21)O[C@@H]1CN2CCC1CC2 (stereo partly drawn) [Example 77, (S)-quinuclidin-3-yl (7-(3-fluoro-4-morpholinophenyl)chroman-4-yl)carbamate] | 28.7 nM | 3.33 nM
CC1(NC(=O)O[C@@H]2CN3CCC2CC3)CCOc2cc(-c3cccc(F)c3)ccc21 (stereo partly drawn) [Example 298, (S)-quinuclidin-3-yl (7-(3-fluorophenyl)-4-methylchroman-4-yl)carbamate] | 5.5 nM | 0.7 nM
O=C(NC1CCOc2cc(-c3cc4ccccc4s3)ccc21)O[C@@H]1CN2CCC1CC2 (stereo partly drawn) [Example 42, (S)-quinuclidin-3-yl (7-(benzo[b]thiophen-2-yl)chroman-4-yl)carbamate] | 34.1 nM | 14 nM
COc1cccc(-c2ccc3c(c2)OCC(C)(C)C3NC(=O)O[C@@H]2CN3CCC2CC3)c1 (stereo partly drawn) [Example 166, (S)-quinuclidin-3-yl (7-(3-methoxyphenyl)-3,3-dimethylchroman-4-yl)carbamate] | 0.07 nM | 0.31 nM
CC1(C)COc2cc(-c3ccc(=O)n(Cc4ccccc4)c3)ccc2C1NC(=O)O[C@@H]1CN2CCC1CC2 (stereo partly drawn) [Example 292, (S)-quinuclidin-3-yl (7-(1-benzyl-6-oxo-1,6-dihydropyridin-3-yl)-3,3-dimethylchroman-4-yl)carbamate] | 30.2 nM | 1.38 nM
COc1cc(F)c(-c2ccc3c(c2)OCC(C)(C)C3NC(=O)O[C@@H]2CN3CCC2CC3)cc1F (stereo partly drawn) [Example 123, (S)-quinuclidin-3-yl (7-(2,5-difluoro-4-methoxyphenyl)-3,3-dimethylchroman-4-yl)carbamate] | 4.24 nM | 0.79 nM
COc1ccc(Cl)c(-c2ccc3c(c2)OCC(C)(C)C3NC(=O)O[C@@H]2CN3CCC2CC3)c1 (stereo partly drawn) [Example 153, (S)-quinuclidin-3-yl (7-(2-chloro-5-methoxyphenyl)-3,3-dimethylchroman-4-yl)carbamate] | 0.06 nM | 0.48 nM
O=C(NC1CCSc2cc(-c3ccc4c(c3)OC(F)(F)O4)ccc21)O[C@@H]1CN2CCC1CC2 (stereo partly drawn) [Example 327, (S)-quinuclidin-3-yl (7-(2,2-difluorobenzo[d][1,3]dioxol-5-yl)thiochroman-4-yl)carbamate] | 37.6 nM | 2.7 nM
CN(C)c1cccc(-c2ccc3c(c2)OCC(C)(C)C3NC(=O)O[C@@H]2CN3CCC2CC3)c1 (stereo partly drawn) [Example 148, (S)-quinuclidin-3-yl (7-(3-(dimethylamino)phenyl)-3,3-dimethylchroman-4-yl)carbamate] | 0.03 nM | 0.74 nM
O=C(NC1CCOc2ccc(-c3ccccc3OC(F)(F)F)cc21)O[C@@H]1CN2CCC1CC2 (stereo partly drawn) [Example 96, (S)-quinuclidin-3-yl (6-(2-(trifluoromethoxy)phenyl)chroman-4-yl)carbamate] | 78.9 nM | 8.55 nM
COc1cc2c(cc1-c1cccc(C(C)C)c1)OCC(C)(C)C2NC(=O)O[C@@H]1CN2CCC1CC2 (stereo partly drawn) [Example 358, (S)-quinuclidin-3-yl (7-(3-isopropylphenyl)-6-methoxy-3,3-dimethylchroman-4-yl)carbamate] | 2 nM | 0.61 nM
